Here are results for ten compounds from patent US10280416B1, “Magnetic ionic liquids, methods of making and uses thereof as solvents in the extraction and preservation of nucleic acids” (The University of Toledo, priority 2015, dated 2019).

Data set [1] in a line: solubility of MILs in water. Format: physicochemical. From the text: Independent of the substituent functional groups imparted by the quaternization reaction, MILs 1-3 were immiscible with water at compositions as low as 0.1% (w/v) MIL. The hydrophobic properties of the monocationic MILs are thus useful for applications such as aqueous liquid-liquid microextractions, where extremely low phase ratios of extraction solvent are employed.

Data set [2] can be described thus: effective magnetic moment, Evans magnetic susceptibility balance. Format: physicochemical. As to conditions: measured at 295K. The text has this:
The paramagnetic properties of MILs provide a unique advantage over conventional ILs by permitting control over substrate motion through the application of an external magnetic field. […] The general expression for molar magnetic susceptibility using the Evans balance is shown in eq 1:
[formula] where XM represents the molar magnetic susceptibility, Cbal is the balance calibration constant, L corresponds to the length of the sample in the tube, M is the molecular weight of the compound being measured, R is the instrument reading for the sample in the tube, Ro is the instrument reading for the empty sample tube, and m is the mass of sample introduced into the Evan's balance. From XM, it is possible to calculate μeff according to eq 2: μeff=2.83√{square root over (XMT)} (2) where T is the absolute temperature. […] In order to increase the magnetic susceptibility of MILs, multiple paramagnetic iron(III) centers were incorporated into the MIL structure. […] The iron(III)-based MILs represent an inexpensive and useful alternative to MILs based on lanthanides, such as Dy(III) (μeff=10.6 μB). Moreover, the higher response of MILs 10 and 11 toward magnetic fields enables the use of smaller magnets with lower field strength for their manipulation in solution, which is useful in miniaturized magnet-based systems.

Data set [3] can be described thus: solubility of MILs in hexanes. It counts as physicochemical.
The target of data set [4] is T1, albumin from chicken egg white (Gallus gallus, UniProt P01012).
T1 construct: albumin from chicken egg white; purchased Sigma-Aldrich (St. Louis, Mo., USA); host or cells: chicken egg white (natural source)
T1 sequence (P01012 1-386): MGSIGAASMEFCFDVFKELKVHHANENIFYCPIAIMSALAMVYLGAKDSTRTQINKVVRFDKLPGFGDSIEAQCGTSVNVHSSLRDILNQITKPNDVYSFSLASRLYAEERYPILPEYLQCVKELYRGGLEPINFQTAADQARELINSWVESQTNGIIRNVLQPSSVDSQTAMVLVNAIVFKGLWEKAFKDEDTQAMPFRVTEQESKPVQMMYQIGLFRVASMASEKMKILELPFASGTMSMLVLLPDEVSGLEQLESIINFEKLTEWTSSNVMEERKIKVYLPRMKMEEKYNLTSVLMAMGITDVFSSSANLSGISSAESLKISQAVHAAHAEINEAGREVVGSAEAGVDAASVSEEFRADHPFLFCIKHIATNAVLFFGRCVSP
Briefly: MIL-based DDE, coextraction of protein from stDNA/albumin matrix. As to conditions: pH 4.4; albumin 3.4 μM, stDNA 4.17 nM. The protocol:
High performance liquid chromatography with UV detection was performed on a LC-20A liquid chromatograph (Shimadzu, Japan) consisting of two LC-20AT pumps, a SPD-20 UV/vis detector, and a DGU-20A3 degasser. Chromatographic separations were performed on a 35 mm×4.6 mm i.d.×2.5 μm TSKgel DEAE-NPR anion exchange column with a 5 mm×4.6 mm i.d.×5 μm TSKgel DEAE-NPR guard column from Tosoh Bioscience (King of Prussia, Pa.). The column was equilibrated with a mobile phase composition of 50:50 (A) 20 mM Tris-HCl (pH 8), and (B) 1 M NaCl/20 mM Tris-HCl (pH 8). For stDNA analysis, gradient elution was performed beginning with 50% mobile phase B and increased to 100% B over 10 min. In the separation of ssDNA as well as DNA and albumin, the column was first equilibrated with 20 mM Tris-HCl followed by gradient elution from 0% to 50% B over 10 min and then 50% to 100% B over 5 min. A flow rate of 1 mL min−1 was used for all HPLC separations. DNA and albumin were detected at 260 and 280 nm, respectively.
Sample matrices containing either metal ions or protein (albumin) were prepared from stock solutions. A sample solution containing 388 mM NaCl, 153 mM KCl, 38.1 mM CaCl2.2H2O, 28.3 mM MgCl2.6H2O, and 4.17 nM stDNA was extracted in triplicate using MIL-based DDE for all three MILs. For experiments involving protein as a matrix component, the samples were prepared at an albumin concentration of 3.4 μM and stDNA concentration of 4.17 nM with the pH varied from 3.5 to 8.

Data set [5] is described as follows: thermal stability by thermal gravimetric analysis (TGA). As to conditions: temperature at which 5 wt % loss of MIL is observed.

In the case of `CCCCCCCCCCCCCCCCn1cc[n+](CCCCCCCCCCCC[n+]2ccn(CCCCCCCCCCCCCCCC)c2C)c1C.O=S(=O)([N-]S(=O)(=O)C(F)(F)F)C(F)(F)F.[Cl][Fe-]([Cl])([Cl])[Br]` [MIL 4b], the solubility in water result in data set [1] is recorded as “I^e (Insoluble at 0.25% (w/v))”. The “μeff (effective magnetic moment)” value in data set [2] is on record as 5.37 μB.
In the case of “benzyltrioctylammonium bromotrichloroferrate(III) [MIL 1]”, the solubility in hexanes result in data set [3] is given as “I”. This compound also had an albumin extraction efficiency in data set [4] of 5.0%. In addition, the solubility in water result in data set [1] is “I^d (Insoluble at 0.1% (w/v))”. The thermal stability in data set [5] is 258 °C. For the same compound, in data set [2], the “μeff (effective magnetic moment)” value is listed as 5.26 μB.
With `CCCCCCCCSCCC[n+]1ccn(Cc2cc(Cn3cc[n+](CCCSCCCCCCCC)c3)cc(Cn3cc[n+](CCCSCCCCCCCC)c3)c2)c1.[Cl][Fe-]([Cl])([Cl])[Br].[Cl][Fe-]([Cl])([Cl])[Br].[Cl][Fe-]([Cl])([Cl])[Br]` [MIL 11], the solubility in water result in data set [1] was “I^e (Insoluble at 0.25% (w/v))”. Besides, the “μeff (effective magnetic moment)” value in data set [2] is given as 11.76 μB.
In the case of `CCCCCCCCCCCCCCCCn1c[n+](CCCCCCCCCCCC[n+]2cn(CCCCCCCCCCCCCCCC)c3ccccc32)c2ccccc21.O=S(=O)([N-]S(=O)(=O)C(F)(F)F)C(F)(F)F.[Cl][Fe-]([Cl])([Cl])[Br]` [MIL 6], in data set [4], the albumin extraction efficiency was about 40%. In addition, the solubility in water result in data set [1] is on record as “Id”. The “μeff (effective magnetic moment)” value in data set [2] is on record as 5.69 μB.
Take `CCCCCCCC[N+](CCCCCCCC)(CCCCCCCC)Cc1ccc(C(C)(C)C)cc1.[Cl][Fe-]([Cl])([Cl])[Br]` [MIL 3]: the solubility in water entry in data set [1] is reported as “I^d (Insoluble at 0.1% (w/v))”. For the same compound, in data set [2], the “μeff (effective magnetic moment)” value turned out to be 5.68 μB.
For the compound `O=S(=O)([N-]S(=O)(=O)C(F)(F)F)C(F)(F)F.[Cl][Fe-]([Cl])([Cl])[Br].c1ccc(Cn2c[n+](CCCCCCCCCCCC[n+]3cn(Cc4ccccc4)c4ccccc43)c3ccccc32)cc1` [MIL 7], the solubility in water result in data set [1] is listed as “I^d (Insoluble at 0.1% (w/v))”. Further, the “μeff (effective magnetic moment)” value in data set [2] is on record as 5.45 μB.
Take `CCCCCCCCCCCCCCCCn1c[n+](CCCCCCCCCCCC[n+]2ccn(Cc3ccccc3)c2)c2ccccc21.O=S(=O)([N-]S(=O)(=O)C(F)(F)F)C(F)(F)F.[Cl][Fe-]([Cl])([Cl])[Br]` [MIL 8]: the solubility in water result in data set [1] was “I^d (Insoluble at 0.1% (w/v))”. Further, the “μeff (effective magnetic moment)” value in data set [2] is recorded as 5.30 μB.
Take `CCCCCCCCCCCCCCCCn1c[n+](CCCCCCCCCCCC[n+]2cn(CCCCCCCCCCCCCCCC)c3ccccc32)c2ccccc21.[Cl][Fe-]([Cl])([Cl])[Br].[Cl][Fe-]([Cl])([Cl])[Br]` [MIL 6c]: in data set [1], the solubility in water result is listed as “I^e (Insoluble at 0.25% (w/v))”. The “μeff (effective magnetic moment)” value in data set [2] is given as 7.58 μB.
On to `CCCCCCCCCCCCCC[P+](CCCCCC)(CCCCCC)CCCCCC.[Cl][Fe-]([Cl])([Cl])[Cl]` [[P6,6,6,14+][FeCl4−], trihexyl(tetradecyl)phosphonium tetrachloroferrate(III), reference compound], for which the albumin extraction efficiency in data set [4] was about 40%.
Take `CCCCCCCC[N+](CCCCCCCC)(CCCCCCCC)Cc1cccc(OC)c1.[Cl][Fe-]([Cl])([Cl])[Br]` [MIL 2]: the solubility in water result in data set [1] is reported as “I^d (Insoluble at 0.1% (w/v))”. Besides, in data set [2], the “μeff (effective magnetic moment)” value worked out at 5.60 μB.
